Measured values published in patent US20120094998A1, “Oligomer-Protein Tyrosine Kinase Inhibitor Conjugates” (Nektar Therapeutics, priority 2009, published 2012).
pIC50: −log10 of the molar value. Where two headings read alike, the source gives them in different places.

Tests used:
ABL (H396P) = ABL (H396P) (Homo sapiens, UniProt P00519, H396P); test: Activity against various protein tyrosine kinases: ABL (H396P); type: biochemical; settings: for inhibition at 0.01 µM: read-out: % Inhibition at 10 nM; for inhibition at 1 µM: read-out: % Inhibition at 1 μM
Experimental: (§1) Using techniques know those of ordinary skill in the art, compounds were tested for activity against various protein tyrosine kinases.

ABL (Q252H) = ABL (Q252H) (Homo sapiens, UniProt P00519, Q252H); test: Activity against various protein tyrosine kinases: ABL (Q252H); type: biochemical; settings: for inhibition at 0.01 µM: read-out: % Inhibition at 10 nM; for inhibition at 1 µM: read-out: % Inhibition at 1 μM
Experimental: as §1

EGFR = EGFR (Homo sapiens, UniProt P00533); test: Activity against various protein tyrosine kinases: EGFR; type: biochemical; settings: for inhibition at 0.01 µM: 10 nM
EGFR, sequence (P00533 25-1210, species assumed): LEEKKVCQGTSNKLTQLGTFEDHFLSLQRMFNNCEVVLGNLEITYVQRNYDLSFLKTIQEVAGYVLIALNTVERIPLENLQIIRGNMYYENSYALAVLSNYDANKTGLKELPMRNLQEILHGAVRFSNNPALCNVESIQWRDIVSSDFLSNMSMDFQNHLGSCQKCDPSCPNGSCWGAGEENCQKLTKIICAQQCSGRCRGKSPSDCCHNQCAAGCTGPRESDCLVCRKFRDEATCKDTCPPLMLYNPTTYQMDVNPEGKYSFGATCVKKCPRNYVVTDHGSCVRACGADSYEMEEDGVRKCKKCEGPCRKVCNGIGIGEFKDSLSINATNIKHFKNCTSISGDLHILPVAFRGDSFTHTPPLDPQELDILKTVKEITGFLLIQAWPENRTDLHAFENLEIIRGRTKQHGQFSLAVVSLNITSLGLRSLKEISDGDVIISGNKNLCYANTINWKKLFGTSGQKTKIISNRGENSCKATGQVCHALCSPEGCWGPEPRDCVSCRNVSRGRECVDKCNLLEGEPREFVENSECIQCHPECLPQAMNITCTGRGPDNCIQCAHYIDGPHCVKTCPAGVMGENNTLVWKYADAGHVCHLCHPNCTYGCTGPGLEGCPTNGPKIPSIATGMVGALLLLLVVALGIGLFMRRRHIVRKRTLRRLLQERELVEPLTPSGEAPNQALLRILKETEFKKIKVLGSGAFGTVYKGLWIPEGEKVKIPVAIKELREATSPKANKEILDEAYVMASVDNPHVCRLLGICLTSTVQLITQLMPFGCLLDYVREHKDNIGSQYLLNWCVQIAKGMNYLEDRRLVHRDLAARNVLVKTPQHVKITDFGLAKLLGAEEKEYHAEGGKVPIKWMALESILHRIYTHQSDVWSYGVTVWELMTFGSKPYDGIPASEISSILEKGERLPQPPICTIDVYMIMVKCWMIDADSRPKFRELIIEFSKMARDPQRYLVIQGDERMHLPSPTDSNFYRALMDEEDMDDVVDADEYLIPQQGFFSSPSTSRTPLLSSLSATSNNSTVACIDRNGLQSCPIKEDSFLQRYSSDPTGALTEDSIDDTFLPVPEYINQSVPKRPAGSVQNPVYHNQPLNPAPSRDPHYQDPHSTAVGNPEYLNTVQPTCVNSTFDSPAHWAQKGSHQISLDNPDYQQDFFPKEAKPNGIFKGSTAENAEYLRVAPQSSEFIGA
Experimental: as §1

FGFR1 = FGFR1 (Homo sapiens, UniProt P11362); test: Activity against various protein tyrosine kinases: FGFR1; type: biochemical; settings: for inhibition at 0.01 µM: 10 nM
FGFR1, sequence (P11362 22-822, species assumed): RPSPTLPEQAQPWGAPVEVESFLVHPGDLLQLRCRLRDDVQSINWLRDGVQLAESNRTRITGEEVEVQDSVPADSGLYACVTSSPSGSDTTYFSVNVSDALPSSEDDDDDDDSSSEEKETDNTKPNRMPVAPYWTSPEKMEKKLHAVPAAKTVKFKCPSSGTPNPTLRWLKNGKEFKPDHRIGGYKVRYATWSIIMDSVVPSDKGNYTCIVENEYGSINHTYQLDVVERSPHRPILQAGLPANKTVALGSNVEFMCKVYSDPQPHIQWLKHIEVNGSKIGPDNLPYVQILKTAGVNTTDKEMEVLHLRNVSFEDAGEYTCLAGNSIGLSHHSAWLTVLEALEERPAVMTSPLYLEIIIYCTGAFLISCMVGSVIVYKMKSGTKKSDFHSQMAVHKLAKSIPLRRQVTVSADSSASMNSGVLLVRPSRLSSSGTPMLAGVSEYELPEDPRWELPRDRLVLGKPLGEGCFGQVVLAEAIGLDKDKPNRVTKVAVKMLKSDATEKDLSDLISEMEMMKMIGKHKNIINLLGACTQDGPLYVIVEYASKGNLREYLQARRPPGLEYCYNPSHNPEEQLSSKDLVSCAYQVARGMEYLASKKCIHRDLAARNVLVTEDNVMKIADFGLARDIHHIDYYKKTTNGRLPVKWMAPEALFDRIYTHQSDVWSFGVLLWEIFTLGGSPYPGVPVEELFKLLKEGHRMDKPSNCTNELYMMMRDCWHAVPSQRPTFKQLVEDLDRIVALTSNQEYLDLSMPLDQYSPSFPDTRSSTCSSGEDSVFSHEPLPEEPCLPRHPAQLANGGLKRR
Experimental: as §1

FYN = FYN (Homo sapiens, UniProt P06241); test: Activity against various protein tyrosine kinases: FYN; type: biochemical; settings: for inhibition at 0.01 µM: 10 nM
FYN, sequence (P06241 whole entry, species assumed): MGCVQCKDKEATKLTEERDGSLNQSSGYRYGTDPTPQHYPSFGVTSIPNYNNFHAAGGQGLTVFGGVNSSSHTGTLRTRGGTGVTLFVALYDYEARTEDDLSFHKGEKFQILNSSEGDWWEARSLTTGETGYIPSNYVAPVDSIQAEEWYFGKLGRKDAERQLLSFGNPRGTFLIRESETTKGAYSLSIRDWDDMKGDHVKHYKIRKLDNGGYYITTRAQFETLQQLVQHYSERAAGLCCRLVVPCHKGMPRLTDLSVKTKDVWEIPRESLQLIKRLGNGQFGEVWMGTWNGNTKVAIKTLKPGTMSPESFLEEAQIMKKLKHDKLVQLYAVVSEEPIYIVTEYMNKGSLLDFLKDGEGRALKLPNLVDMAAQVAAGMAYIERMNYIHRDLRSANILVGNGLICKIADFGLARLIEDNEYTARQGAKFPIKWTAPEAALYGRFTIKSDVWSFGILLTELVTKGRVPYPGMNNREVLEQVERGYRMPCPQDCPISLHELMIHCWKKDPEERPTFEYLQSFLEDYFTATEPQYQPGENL
Experimental: as §1

IKK-beta = molecular target: T1, IKK-beta (Homo sapiens, UniProt O14920); test: Activity against various protein tyrosine kinases: IKK-beta; type: biochemical; settings: for inhibition at 0.01 µM: 10 nM
T1 sequence (O14920 1-756): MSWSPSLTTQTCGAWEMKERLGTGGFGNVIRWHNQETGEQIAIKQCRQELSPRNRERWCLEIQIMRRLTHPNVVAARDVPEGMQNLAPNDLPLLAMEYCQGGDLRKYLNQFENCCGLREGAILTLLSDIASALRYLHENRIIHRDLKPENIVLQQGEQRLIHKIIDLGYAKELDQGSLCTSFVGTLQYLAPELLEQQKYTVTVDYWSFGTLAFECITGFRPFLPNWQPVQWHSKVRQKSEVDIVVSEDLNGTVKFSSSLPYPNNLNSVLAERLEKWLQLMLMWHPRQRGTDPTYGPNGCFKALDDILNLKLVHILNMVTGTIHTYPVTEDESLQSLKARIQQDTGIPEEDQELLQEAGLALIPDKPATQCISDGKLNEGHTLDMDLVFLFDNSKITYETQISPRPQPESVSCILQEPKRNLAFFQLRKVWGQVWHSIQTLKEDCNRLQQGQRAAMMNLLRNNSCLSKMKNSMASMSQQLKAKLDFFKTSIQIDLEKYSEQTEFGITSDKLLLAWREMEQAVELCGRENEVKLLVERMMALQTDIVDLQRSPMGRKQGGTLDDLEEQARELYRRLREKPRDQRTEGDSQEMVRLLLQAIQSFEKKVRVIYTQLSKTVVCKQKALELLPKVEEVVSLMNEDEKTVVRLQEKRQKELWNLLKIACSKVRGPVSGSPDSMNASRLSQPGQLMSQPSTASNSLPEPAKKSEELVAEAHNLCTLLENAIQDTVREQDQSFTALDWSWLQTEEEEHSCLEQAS
Experimental: as §1

MAPKAPK3 = MAPKAPK3 (Homo sapiens, UniProt Q16644); test: Activity against various protein tyrosine kinases: MAPKAPK3; type: biochemical; settings: for inhibition at 0.01 µM: 10 nM
MAPKAPK3, sequence (Q16644 whole entry, species assumed): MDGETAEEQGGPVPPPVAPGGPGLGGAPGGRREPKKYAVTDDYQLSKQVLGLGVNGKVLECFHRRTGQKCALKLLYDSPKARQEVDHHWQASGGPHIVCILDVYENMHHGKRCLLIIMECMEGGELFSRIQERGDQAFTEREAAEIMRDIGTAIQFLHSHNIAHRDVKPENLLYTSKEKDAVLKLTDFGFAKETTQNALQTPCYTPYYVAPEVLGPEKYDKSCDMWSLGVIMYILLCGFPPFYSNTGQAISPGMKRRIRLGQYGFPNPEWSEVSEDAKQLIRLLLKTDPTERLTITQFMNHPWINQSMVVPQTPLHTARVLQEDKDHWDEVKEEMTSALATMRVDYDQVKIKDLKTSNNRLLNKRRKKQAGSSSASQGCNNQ
Experimental: as §1

PKG1-beta = molecular target: T2, PKG1-beta (Homo sapiens, UniProt Q13976); test: Activity against various protein tyrosine kinases: PKG1-beta; type: biochemical; settings: for inhibition at 0.01 µM: 10 nM
T2 sequence (Q13976 1-686 isoform Q13976-2): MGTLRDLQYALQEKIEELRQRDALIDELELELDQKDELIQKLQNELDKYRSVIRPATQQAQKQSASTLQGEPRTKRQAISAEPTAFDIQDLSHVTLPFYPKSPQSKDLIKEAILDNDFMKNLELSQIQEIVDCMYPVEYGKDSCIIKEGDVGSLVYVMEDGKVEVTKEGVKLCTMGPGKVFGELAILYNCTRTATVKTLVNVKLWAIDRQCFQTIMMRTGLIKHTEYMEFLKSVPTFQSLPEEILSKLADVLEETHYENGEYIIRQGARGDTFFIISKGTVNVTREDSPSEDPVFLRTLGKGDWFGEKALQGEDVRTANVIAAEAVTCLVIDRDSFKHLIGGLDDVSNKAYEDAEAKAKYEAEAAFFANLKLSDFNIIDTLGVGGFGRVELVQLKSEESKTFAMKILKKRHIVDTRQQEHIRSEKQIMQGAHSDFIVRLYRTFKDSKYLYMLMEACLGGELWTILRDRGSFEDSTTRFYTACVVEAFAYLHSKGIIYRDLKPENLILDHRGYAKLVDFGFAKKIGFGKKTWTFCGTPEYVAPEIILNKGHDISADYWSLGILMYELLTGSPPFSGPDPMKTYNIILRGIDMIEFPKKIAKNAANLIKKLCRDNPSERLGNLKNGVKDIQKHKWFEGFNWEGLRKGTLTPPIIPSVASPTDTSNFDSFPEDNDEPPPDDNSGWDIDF
Experimental: as §1

RSK1 = RSK1 (Homo sapiens, UniProt Q15418); test: Activity against various protein tyrosine kinases: RSK1; type: biochemical; settings: for inhibition at 0.01 µM: 10 nM
RSK1, sequence (Q15418 whole entry, species assumed): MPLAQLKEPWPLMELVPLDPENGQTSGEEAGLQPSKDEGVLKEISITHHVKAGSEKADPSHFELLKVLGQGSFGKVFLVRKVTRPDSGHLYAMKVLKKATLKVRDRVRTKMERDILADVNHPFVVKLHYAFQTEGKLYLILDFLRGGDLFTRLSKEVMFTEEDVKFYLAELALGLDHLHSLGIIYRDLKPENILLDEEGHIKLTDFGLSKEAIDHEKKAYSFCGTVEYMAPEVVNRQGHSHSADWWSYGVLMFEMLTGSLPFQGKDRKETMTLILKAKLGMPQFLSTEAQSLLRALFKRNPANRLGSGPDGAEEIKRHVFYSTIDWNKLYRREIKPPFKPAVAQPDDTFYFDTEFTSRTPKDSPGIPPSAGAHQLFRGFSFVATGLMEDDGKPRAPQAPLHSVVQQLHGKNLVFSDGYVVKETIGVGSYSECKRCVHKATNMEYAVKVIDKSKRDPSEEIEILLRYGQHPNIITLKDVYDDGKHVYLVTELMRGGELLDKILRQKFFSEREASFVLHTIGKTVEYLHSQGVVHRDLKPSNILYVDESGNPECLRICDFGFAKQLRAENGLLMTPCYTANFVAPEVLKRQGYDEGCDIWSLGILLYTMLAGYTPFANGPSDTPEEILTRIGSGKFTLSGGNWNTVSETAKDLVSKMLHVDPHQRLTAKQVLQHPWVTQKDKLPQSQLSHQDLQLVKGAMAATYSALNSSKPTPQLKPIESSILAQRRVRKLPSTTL
Experimental: as §1

SRC = SRC (Homo sapiens, UniProt P12931); test: Activity against various protein tyrosine kinases: SRC; type: biochemical; settings: for inhibition at 0.01 µM: 10 nM
SRC, sequence (P12931 whole entry, species assumed): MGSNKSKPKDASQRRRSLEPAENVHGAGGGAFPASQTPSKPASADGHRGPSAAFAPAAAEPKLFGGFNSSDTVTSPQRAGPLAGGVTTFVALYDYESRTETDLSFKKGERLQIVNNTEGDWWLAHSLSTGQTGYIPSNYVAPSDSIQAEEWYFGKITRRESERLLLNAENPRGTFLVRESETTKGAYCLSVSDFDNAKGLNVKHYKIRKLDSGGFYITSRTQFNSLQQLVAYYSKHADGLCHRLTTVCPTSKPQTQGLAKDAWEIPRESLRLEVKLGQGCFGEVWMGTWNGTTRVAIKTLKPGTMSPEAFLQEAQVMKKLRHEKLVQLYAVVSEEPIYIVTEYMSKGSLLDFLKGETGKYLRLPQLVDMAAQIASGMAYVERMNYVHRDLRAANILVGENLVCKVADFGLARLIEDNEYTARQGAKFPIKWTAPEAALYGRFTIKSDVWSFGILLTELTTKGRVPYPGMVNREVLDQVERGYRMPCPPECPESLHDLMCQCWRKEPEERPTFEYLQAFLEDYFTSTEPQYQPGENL
Experimental: as §1

YES = YES (Homo sapiens, UniProt P07947); test: Activity against various protein tyrosine kinases: YES; type: biochemical; settings: for inhibition at 0.01 µM: 10 nM
YES, sequence (P07947 whole entry, species assumed): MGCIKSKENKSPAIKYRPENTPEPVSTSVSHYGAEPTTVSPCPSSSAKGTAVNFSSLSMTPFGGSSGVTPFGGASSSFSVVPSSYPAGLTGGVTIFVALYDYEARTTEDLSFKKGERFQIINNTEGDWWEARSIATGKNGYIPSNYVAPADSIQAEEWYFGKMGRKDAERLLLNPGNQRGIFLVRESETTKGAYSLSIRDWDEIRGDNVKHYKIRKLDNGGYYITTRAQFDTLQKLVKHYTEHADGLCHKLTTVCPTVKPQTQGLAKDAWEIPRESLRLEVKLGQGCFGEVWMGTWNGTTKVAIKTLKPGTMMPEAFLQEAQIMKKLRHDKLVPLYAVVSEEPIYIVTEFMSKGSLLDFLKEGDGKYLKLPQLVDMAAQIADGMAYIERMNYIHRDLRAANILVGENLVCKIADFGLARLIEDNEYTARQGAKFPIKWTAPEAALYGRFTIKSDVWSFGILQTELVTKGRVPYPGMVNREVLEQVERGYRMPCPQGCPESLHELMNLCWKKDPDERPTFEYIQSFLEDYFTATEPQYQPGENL
Experimental: as §1

ABL [1] = molecular target: T3, ABL (Homo sapiens, UniProt P00519)
ABL [2] = molecular target: T3, ABL; test: Off-chip mobility-shift kinase assay (Caliper LABCHIP), ABL

Row | inhibition at 0.01 µM (EGFR) | inhibition at 1 µM (EGFR) | inhibition at 0.01 µM (FGFR1) | inhibition at 1 µM (FGFR1) | inhibition at 0.01 µM (FYN) | inhibition at 1 µM (FYN) | inhibition at 0.01 µM (IKK-beta) | inhibition at 1 µM (IKK-beta) | inhibition at 0.01 µM (MAPKAPK3) | inhibition at 1 µM (MAPKAPK3) | inhibition at 0.01 µM (PKG1-beta) | inhibition at 1 µM (PKG1-beta) | inhibition at 0.01 µM (RSK1) | inhibition at 1 µM (RSK1) | inhibition at 0.01 µM (SRC) | inhibition at 1 µM (SRC) | inhibition at 0.01 µM (YES) | inhibition at 1 µM (YES) | pIC50 (ABL [2]) | SMILES | other results
1 | 3% | 76% | 11% | -3% | 98% | 99% | 0% | 1% | 5% | 3% | -2% | 0% | 2% | 0% | 99% | 99% | 100% | 100% | 9.52 | COCCOCCOCCNC(=O)OCCN1CCN(c2cc(Nc3ncc(C(=O)Nc4c(C)cccc4Cl)s3)nc(C)n2)CC1 [mPEG3-NHCOO-Dasatinib] | inhibition at 0.01 µM (ABL (H396P)): 99%; inhibition at 1 µM (ABL (H396P)): 99%; inhibition at 0.01 µM (ABL (Q252H)): 98%; inhibition at 1 µM (ABL (Q252H)): 99%; ABL AVG % Activity at 1.0E−09 (ABL [1]): 4%; ABL AVG % Activity at 1.0E−10 (ABL [1]): 81%; ABL AVG % Activity at 1.0E−11 (ABL [1]): 99%; ABL AVG % Activity at 3.0E−09 (ABL [1]): 0%; ABL AVG % Activity at 3.0E−10 (ABL [1]): 47%; ABL AVG % Activity at 3.0E−11 (ABL [1]): 95%
2 | 6% | 62% | 2% | 3% | 98% | 98% | 2% | 2% | 1% | 0% | -3% | -3% | 0% | 4% | 98% | 98% | 100% | 102% | 9.49 | COCCOCCOCCOCCOCCOCCOCCNC(=O)OCCN1CCN(c2cc(Nc3ncc(C(=O)Nc4c(C)cccc4Cl)s3)nc(C)n2)CC1 [mPEG7-NHCOO-Dasatinib] | inhibition at 0.01 µM (ABL (H396P); ABL (H396P), 10 nM): 99%; inhibition at 1 µM (ABL (H396P); ABL (H396P), 1 μM): 99%; inhibition at 0.01 µM (ABL (Q252H); ABL (Q252H), 10 nM): 99%; inhibition at 1 µM (ABL (Q252H); ABL (Q252H), 1 μM): 99%; ABL AVG % Activity at 1.0E−09 (ABL [2]; concentration 1.0E−09, dasatinib-corresponding compounds): 4%; ABL AVG % Activity at 1.0E−10 (ABL [2]; concentration 1.0E−10, dasatinib-corresponding compounds): 80%; ABL AVG % Activity at 1.0E−11 (ABL [2]; concentration 1.0E−11, dasatinib-corresponding compounds): 98%; ABL AVG % Activity at 3.0E−09 (ABL [2]; concentration 3.0E−09, dasatinib-corresponding compounds): −1%; ABL AVG % Activity at 3.0E−10 (ABL [2]; concentration 3.0E−10, dasatinib-corresponding compounds): 48%; ABL AVG % Activity at 3.0E−11 (ABL [2]; concentration 3.0E−11, dasatinib-corresponding compounds): 91%
